In patent publication US11253537B2, “Polypeptide having the ability to form connections of glucosyl units in alpha-1,3 on an acceptor” (INSTITUT NATIONAL DE RECHERCHE POUR L'AGRICULTURE, …, priority 2013, dated 2022):
One block for each molecule: values may come before it.

Columns and labels:
Type in all cases: biochemical
[1] = Reaction of the enzyme on sucrose alone (HPAEC-PAD, HPSEC); settings: no acceptor
Description: The determination of the enzymatic activity of the polypeptide according to the invention can be determined by methods known to those skilled in the art, such as by use of the High Performance Liquid Chromatography Technique on reaction products with the polypeptide of the invention (MOULIS et al., J. Biol. Chem, 2006) or assay of reducing sugars by the method in dinitrosalycilic acid (SUMNER & HOWELL, 1935). More specifically, this enzymatic activity is expressed in glucansucrase units which represents the amount of enzyme which liberates one μmol of fructose per minute at 30° C. with a concentration of 100 g·L−1 sucrose and a buffer at pH 5.2 comprising 50 mM sodium acetate. This activity is preferably determined by measuring the initial rate of production of reducing sugars (fructose) by using the DNS method (SUMNER & HOWELL). To do this, a standard range of 0-2 g·L−1 of fructose is established. During kinetics, 100 μl of reaction medium are then sampled and the reaction is stopped by adding an equal volume of reagent. The samples were then heated for 5 min at 95° C., cooled in ice, diluted in half with water and the absorbance is read at 540 nm.
To characterise the functional properties of this putative transglucosylase, the enzyme was first implemented on sucrose alone, a natural substrate of enzymes of the GH70 family.
More specifically, monosaccharides, disaccharides, and small oligosaccharides (degree of polymerisation less than 20) were separated and quantified by HPAEC-PAD (High Performance Anion Exchange Chromatography with Pulsed Amperometric Detection) on column Dionex CarboPac PA-100. A sodium acetate gradient of 6 to 300 mM in 36 min, containing 150 mM of sodium hydroxide used to separate glucose, fructose, sucrose, leucrose, isomaltooligosaccharides, etc. Standard ranges of 5, 10, 15 and 20 mg·kg-1 of these sugars were performed to allow quantification. These samples were diluted for a total sugar concentration of 25 mg·kg-1. […]

[2] = Acceptor reaction with sucrose and dextran 1500 Da; α-1,3 connections by proton NMR; settings: for factor multiplying the activity of the enzyme on addition of dextran 1500 Da as acceptor: compared to the activity measured on sucrose alone
Procedure: While nothing presaged that this protein had still an activity, the latter (as well as its truncated form) was also incubated in the presence of sucrose and a linear dextran (glucan composed exclusively of α-1,6 bonds) of a molecular weight of 1500 Da.
(§1) We incubated for 16 h at 30° C., enzyme in sucrose (from 25 g/L to 170 g/L) in the presence of dextrans of variable molecular weight (from 1500 Da to 2.10^6 Da) and of varying concentration of 30 g/L to 100 g/L.; the sucrose/acceptor (M/M) ratio varies depending on the desired connection rate in α-1,3. The reaction medium was buffered with a solution with final sodium acetate with 50 mM, pH 5.2. A sample at initial and final times of the reaction was conducted, heated at 95° C. for 5 minutes to stop the reaction and analysed by various chromatographic (HPAEC-PAD, HPSEC) and structural (proton NMR) techniques.
More specifically, monosaccharides, disaccharides, and small oligosaccharides (degree of polymerisation less than 20) were separated and quantified by HPAEC-PAD (High Performance Anion Exchange Chromatography with Pulsed Amperometric Detection) on column Dionex CarboPac PA-100. A sodium acetate gradient of 6 to 300 mM in 36 min, containing 150 mM of sodium hydroxide used to separate glucose, fructose, sucrose, leucrose, isomaltooligosaccharides, etc. Standard ranges of 5, 10, 15 and 20 mg·kg-1 of these sugars were performed to allow quantification. These samples were diluted for a total sugar concentration of 25 mg·kg-1.
Analyses by HPSEC (High Performance Size Exclusion Chromatography-) were used to estimate the molecular weight of oligosaccharide populations or of polymers synthesised during the reactions. The separation was done using two columns SHODEX (OH-Pack SB-805 and 802.5) arranged in series. Solutions of 1, 2.5, 5 and 10 gL−1 sucrose, fructose, maltoheptaose, Dextran 11.3 kDa, 68.4 kDa, 503 kDa, 2000 kDa served as benchmarks. The samples were diluted 10 times to reach a maximum concentration of 10 g·kg-1. A solution of 0.45 M NaNO3+1% (v/v) ethylene glycol in 0.3 mL·min-1 is used as an eluent, and the samples should be diluted in the mobile phase. Column and precolumn were maintained at 70° C., detection is performed by refractometry.
(§2) For the NMR analyses, the synthesised polymers were stored at −80° C. overnight and then be freeze-dried (CHRIST ALPHA apparatus 2-4). 10 mg of the powder obtained are then dissolved in 0.5 mL of deuterated water and analysed by proton NMR. The 1H NMR spectra were acquired on a spectrometer BRUKER AVANCE (500 MHz). The data were then treated with the TOPSPIN 3.0 software.

[3] = Acceptor reaction with sucrose and higher molecular weight dextrans; proton NMR; settings: dextran 68.4 kDa, 503 kDa and 2×10^6 Da
Procedure: as §1, §2
Tests were performed out on particular dextran 68.4 kDa, 503 kDa and 2×10^6 Da. Based on proton NMR analyses, the high molecular weight dextrans have 50% of α-1,3 bonds (FIGS. 7 and 8). Here again we find the comb-like structure described in the '80 s in the work on the native glucan produced by the strain.

[4] = Screening of a library of acceptors with sucrose; settings: FOS and XOS as acceptors
Procedure: The enzyme α-1,3 BrS is put in the presence of its natural substrate (sucrose) and a panel of different acceptors, including dextrans connected in α-1.2 (BRISON et al., 2009), of mutans, of alternans, of reuterans, of fructans and of fructooligosaccharides, of polyphenols, of flavonoids, of amino acids. The reaction products are analysed by various chromatographic techniques (mass spectrometry, HPAEC-PAD) and by NMR.

Molecule: GH L. fallax: orthologue protein from Leuconostoc fallax KCTC 3537, about 54% overall identity with α-1,3 BrS
- ability to produce polymers of glucosyl units from sucrose alone [1]: inability to polymerise the glucosyl units
- connection rate in α-1,3 on a dextran 1500 Da [2]: 37%

- factor multiplying the activity of the enzyme on addition of dextran 1500 Da as acceptor [2]: 26
Molecule: α-1,3 BrS: transglucosylase of 1888 amino acids from L. citreum NRRL B-742 forming α-1,3 connections of glucosyl units on acceptors
- α-1,3 bonds of the high molecular weight dextrans after reaction [3]: 50%
- glycosylation of oligosaccharide acceptors [4]: allows the glycosylation of oligosaccharides
- ability to produce polymers of glucosyl units from sucrose alone [1]: no ability to produce polymers of glucosyl units
- substitution rate (α-1,3) ([2]; sucrose/Dextran 1500 ratio 1/2): lower than 25%
- rate of substitution (α-1,3) ([2]; sucrose/Dextran 1500 ratio 1/3): below 15%
- degree of substitution (α-1,3) ([2]; sucrose/Dextran 1500 ratio above 1, increasing the substrate concentration): ~50%
- degree of substitution (α-1,3) ([2]; sucrose/Dextran 1500 ratio greater than or equal to 1): about 40%

- factor multiplying the activity of the enzyme on addition of dextran 1500 Da as acceptor [2]: 26
- rate of α-1,3 bonds according to the sucrose/dextran 1500 Da ratio, compared with the whole enzyme ([2]; truncated enzyme, same substrate (FIG. 6)): same results
B1: ΔPS ΔC-1313: form of α-1,3 BrS truncated of the signal peptide and C-terminal (position 1313) (protein)
chain: DTQTPVGTTQSQQDLTGQTGQDKPTTKEVIDKKEPVPQVSAQNVGDLSADAKTPKADDKQDTQPTNAQLPDQGNKQTNSNSDKGVKESTTAPVKTTDVPSKSVAPETNTSINGGQYVEKDGQFVYIDQSGKQVSGLQNIEGHTQYFDPKTGYQTKGELKNIDDNAYYFDKNSGNGRTFTKISNGSYSEKDGMWQYVDSHDKQPVKGLYDVEGNLQYFDLSTGNQAKHQIRSVDGVTYYFDADSGNATAFKAVTNGRYAEQTTKDKDGNETSYWAYLDNQGNAIKGLNDVNGEIQYFDEHTGEQLKGHTATVDGTTYYFEGNKGNLVSVVNTAPTGQYKINGDNVYYLDNNNEAIKGLYGINGNLNYFDLATGIQLKGQAKNIDGIGYYFDQNNGNGEYRYSLTGPVVKDVYSQHNAVNNLSANNFKNLVDGFLTAETWYRPAQILSHGTDWVASTDKDFRPLITVWWPNKDIQVNYLKLMQQIGILDNSVVFDTNNDQLVLNKGAESAQIGIEKKVSETGNTDWLNELLFAPNGNQPSFIKQQYLWNVDSEYPGGWFQGGYLAYQNSDLTPYANTNPDYRTHNGLEFLLANDVDNSNPVVQAEQLNWLYYLMNFGQITANDSNANFDSMRIDAISFVDPQIAKKAYDLLDKMYGLTDNEAVANQHISIVEAPKGETPITVEKQSALVESNWRDRMKQSLSKNATLDKLDPDPAINSLEKLVADDLVNRSQSSDKDSSTIPNYSIVHAHDKDIQDTVIHIMKIVNNNPNISMSDFTMQQLQNGLKAFYEDQHQSVKKYNQYNIPSAYALLLTNKDTVPRVFYGDMYQDYGDDLDGGQYMATKSIYYNAIEQMMKARLKYVAGGQIMAVTKIKNDGINKDGTNKSGEVLTSVRFGKDIMDAQGQGTAESRNQGIGVIVSNSSGLELKNSDSITLHMGIAHKNQAYRALMLTNDKGIVNYDQDNNAPIAWTNDHGDLIFTNQMINGQSDTAVKGYLNPEVAGYLAVWVPVGANDNQDARTVTTNQKNTDGKVLHTNAALDSKLMYEGFSNFQKMPTRGNQYANVVITKNIDLFKSWGITDFELAPQYRSSDGKDITDRFLDSIVQNGYGLSDRYDLGFKTPTKYGTDQDLRKAIERLHQAGMSVMADFVANQIYGLHADKEVVSAQHVNINGDTKLVVDPRYGTQMTVVNSVGGGDYQAKYGGEYLDTISKLYPGLLLDSNGQKIDLSTKIKEWSAKYLNGSNIPQVGMGYVLKDWNNGQYFHILDKEGQYSLPTQL
modifications: Delta PS, delta C-1313
- α-1,3 bonds of the high molecular weight dextrans after reaction [3]: 50%
- ability to produce polymers of glucosyl units from sucrose alone [1]: no ability to produce polymers of glucosyl units
